According to patent publication US11155525B2 (Sanford Burnham Prebys Medical Discovery Institute, priority 2015, dated 2021):

Biological target: T1, human apelin receptor (Homo sapiens, UniProt P35414)
T1 construct: host or cells: CHO cells
T1 sequence (P35414 1-380): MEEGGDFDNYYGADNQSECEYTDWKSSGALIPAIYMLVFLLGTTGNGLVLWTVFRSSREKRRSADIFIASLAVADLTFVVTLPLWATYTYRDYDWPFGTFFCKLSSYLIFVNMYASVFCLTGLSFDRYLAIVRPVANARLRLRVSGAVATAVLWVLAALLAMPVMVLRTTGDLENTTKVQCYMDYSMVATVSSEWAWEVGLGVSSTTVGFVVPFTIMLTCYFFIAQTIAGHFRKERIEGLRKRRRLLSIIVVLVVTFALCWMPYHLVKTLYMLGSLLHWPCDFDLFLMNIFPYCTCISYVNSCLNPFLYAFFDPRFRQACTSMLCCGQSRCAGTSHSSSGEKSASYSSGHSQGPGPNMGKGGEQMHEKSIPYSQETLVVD
Assay: Measurement of apelin receptor agonist activity (cell-based assay determining the amount of intracellular cAMP)
Conditions: CHO cells stably expressing the human apelin receptor, Forskolin 10 μM, 30 minutes, 100% efficacy = [Pyr1]-apelin-13 0.300 μM, concentration giving 50% efficacy
Procedure: Measurement of Apelin Receptor Agonist Activity
The apelin receptor agonist activity of the compound represented by formula (I) or (II) of the present invention was measured by cell-based assay for determining the amount of intracellular cAMP.
CHO cells (DiscoveRx Corp.) stably expressing the human apelin receptor were inoculated to wells of a microtiter plate and cultured overnight at 37° C. under conditions of 5% CO2.
Each test compound and Forskolin were added to the wells at the same time. Specifically, the test compound dissolved in DMSO was diluted with a Forskolin-containing buffer [DMEM/F-12, HEPES, no phenol red (#11039, GIBCO)] to prepare a mixed solution containing the test compound at a final concentration of […] (common ratio: 3, serial dilution: 11), Forskolin at a final concentration of 10 μM, and DMSO at a final concentration of 0.3% v/v, which was then added to the wells (N═4).
After 30 minutes, the cells were lysed, and HitHunter cAMP XS+ Assay #90-0075L (DiscoveRx Corp.) was added to the cell lysate. The mixture was left overnight, and the resulting chemiluminescence signals were then detected using Analyst GT (Molecular Devices LLC.) to determine the amount of cAMP.
The amount of cAMP determined by the addition of a positive control [Pyr1]-apelin-13 (final concentration: 0.300 μM) and Forskolin (final concentration: 10 μM) at the same time was used as an index to define 100% efficacy. The amount of cAMP determined by the addition of Forskolin (final concentration: 10 μM) alone was used as an index to define 0% efficacy.
A dose response curve was prepared from the final concentration of the test compound and the determined amount of cAMP using Sigmaplot 12.0.

EC50 [nM]	SMILES
1020	COc1cccc(OC)c1-n1c(CC#N)nnc1-c1ccc(C)o1 [Example 73, [4-(2,6-Dimethoxyphenyl)-5-(5-methylfuran-2-yl)-4H-1,2,4-triazol-3-yl]acetonitrile]
192	COc1cccc(OC)c1-n1c(S)nnc1-c1cccs1 [Example 10, 4-(2,6-Dimethoxyphenyl)-5-(thiophen-2-yl)-4H-1,2,4-triazole-3-thiol]
18	COc1cccc(OC)c1-n1c(/C=C/C(=O)O)nnc1-c1ccc(C)o1 [Example 9, (2E)-3-[4-(2,6-Dimethoxyphenyl)-5-(5-methylfuran-2-yl)-4H-1,2,4-triazol-3-yl]prop-2-enoic acid]
1330	COc1cccc(OC)c1-n1c(CSc2nnc[nH]2)nnc1-c1ccc(C)o1 [Example 68, 4-(2,6-Dimethoxyphenyl)-3-(5-methylfuran-2-yl)-5-[(4H-1,2,4-triazol-3-ylsulfanyl)methyl]-4H-1,2,4-triazole]
10	COc1cccc(OC)c1-n1c(SC(C(=O)O)c2ccccc2)nnc1-c1ccc(C)o1 (centres unmarked) [Example 35, {[4-(2,6-Dimethoxyphenyl)-5-(5-methylfuran-2-yl)-4H-1,2,4-triazol-3-yl]sulfanyl}(phenyl)acetic acid]
26	COc1cccc(OC)c1-n1c(SCC(=O)O)nnc1-c1ccc(C)o1 [Example 5, {[4-(2,6-Dimethoxyphenyl)-5-(5-methylfuran-2-yl)-4H-1,2,4-triazol-3-yl]sulfanyl}acetic acid]
1320	COc1cccc(OC)c1-n1c(SCCCCCC(=O)O)nnc1-c1ccc(C)o1 [Example 50, 6-{[4-(2,6-Dimethoxyphenyl)-5-(5-methylfuran-2-yl)-4H-1,2,4-triazol-3-yl]sulfanyl}hexanoic acid]
261	COC(=O)C(Sc1nnc(-c2ccc(C)o2)n1-c1c(OC)cccc1OC)c1ccccn1 (racemic) [Example 89, Methyl {[4-(2,6-dimethoxyphenyl)-5-(5-methylfuran-2-yl)-4H-1,2,4-triazol-3-yl]sulfanyl}(pyridin-2-yl)acetate]
52	COc1cccc(OC)c1-n1c(/C=C/C(=O)O)nnc1-c1ccc(C)o1 [Example 64, Ammonium (2E)-3-[4-(2,6-dimethoxyphenyl)-5-(5-methylfuran-2-yl)-4H-1,2,4-triazol-3-yl]prop-2-enoate]
87	COc1cccc(OC)c1-n1c(SCCCC(=O)O)nnc1-c1ccc(C)o1 [Example 22, 4-{[4-(2,6-Dimethoxyphenyl)-5-(5-methylfuran-2-yl)-4H-1,2,4-triazol-3-yl]sulfanyl}butanoic acid]
95	COc1cccc(OC)c1-n1c(CN(C(=O)c2ccc(C)cc2)C(=O)c2ccc(C)cc2)nnc1-c1ccc(C)o1 [Example 72, N-{[4-(2,6-Dimethoxyphenyl)-5-(5-methylfuran-2-yl)-4H-1,2,4-triazol-3-yl]methyl}-4-methyl-N-(4-methylbenzoyl)benzamide]
31	COc1cccc(OC)c1-n1c(S)nnc1-c1ccc(C)o1 [Example 1, 4-(2,6-Dimethoxyphenyl)-5-(5-methylfuran-2-yl)-4H-1,2,4-triazole-3-thiol]
98	COc1cccc(OC)c1-n1c(SCc2nnn[nH]2)nnc1-c1ccc(C)o1 [Example 74, 5-({[4-(2,6-Dimethoxyphenyl)-5-(5-methylfuran-2-yl)-4H-1,2,4-triazol-3-yl]sulfanyl}methyl)-1H-tetrazole]
9	COc1cccc(OC)c1-n1c(SC(C(=O)O)c2cccc3ccccc23)nnc1-c1ccc(C)o1 (centres unmarked) [Example 38, {[4-(2,6-Dimethoxyphenyl)-5-(5-methylfuran-2-yl)-4H-1,2,4-triazol-3-yl]sulfanyl}(naphthalen-1-yl)acetic acid]
314	COc1cccc(OC)c1-n1c(SCc2cc(=O)n3nccc3[nH]2)nnc1-c1ccc(C)o1 [Example 16, 5-({[4-(2,6-Dimethoxyphenyl)-5-(5-methylfuran-2-yl)-4H-1,2,4-triazol-3-yl]sulfanyl}methyl)pyrazolo[1,5-a]pyrimidin-7(4H)-one]
219	COc1cccc(OC)c1-n1c(SCC(N)=O)nnc1-c1ccc(C)o1 [Example 83, 2-{[4-(2,6-Dimethoxyphenyl)-5-(5-methylfuran-2-yl)-4H-1,2,4-triazol-3-yl]sulfanyl}acetamide]
703	COc1cccc(OC)c1-n1cnnc1-c1ccc(C)o1 [Example 6, 4-(2,6-Dimethoxyphenyl)-3-(5-methylfuran-2-yl)-4H-1,2,4-triazole]
174	CCc1cccc(CC)c1-n1c(SCC(=O)O)nnc1-c1ccc(C)o1 [Example 31, {[4-(2,6-Diethylphenyl)-5-(5-methylfuran-2-yl)-4H-1,2,4-triazol-3-yl]sulfanyl}acetic acid]

The remaining lines, values behind:

SMILES	EC50 [nM]
COC(=O)/C=C\c1nnc(-c2ccc(C)o2)n1-c1c(OC)cccc1OC [Example 55, Methyl (2Z)-3-[4-(2,6-dimethoxyphenyl)-5-(5-methylfuran-2-yl)-4H-1,2,4-triazol-3-yl]prop-2-enoate]	1920
COc1cccc(OC)c1-n1c(SCc2n[nH]c(=O)o2)nnc1-c1ccc(C)o1 [Example 101, 5-({[4-(2,6-Dimethoxyphenyl)-5-(5-methylfuran-2-yl)-4H-1,2,4-triazol-3-yl]sulfanyl}methyl)-1,3,4-oxadiazol-2(3H)-one]	587
COc1cccc(OC)c1-n1c(/C=C/C(=O)N2C[C@H](O)C[C@H]2C(=O)O)nnc1-c1ccc(C)o1 [Example 92, (4R)-1-{(2E)-3-[4-(2,6-Dimethoxyphenyl)-5-(5-methylfuran-2-yl)-4H-1,2,4-triazol-3-yl]prop-2-enoyl}-4-hydroxy-L-proline]	166
COC(=O)c1cccc(CSc2nnc(-c3ccc(C)o3)n2-c2c(OC)cccc2OC)c1 [Example 79, Methyl 3-({[4-(2,6-dimethoxyphenyl)-5-(5-methylfuran-2-yl)-4H-1,2,4-triazol-3-yl]sulfanyl}methyl)benzoate]	208
CCOC(=O)/C=C/c1nnc(-c2ccc(C)o2)n1-c1c(OC)cccc1OC [Example 8, Ethyl (2E)-3-[4-(2,6-dimethoxyphenyl)-5-(5-methylfuran-2-yl)-4H-1,2,4-triazol-3-yl]prop-2-enoate]	1570
COc1cccc(OC)c1-n1c(SCC(=O)O)nnc1-c1ccc(Br)o1 [Example 26, {[5-(5-Bromofuran-2-yl)-4-(2,6-dimethoxyphenyl)-4H-1,2,4-triazol-3-yl]sulfanyl}acetic acid]	57
COc1cccc(OC)c1-n1c(/C=C/C(=O)O)nnc1-c1ccc(C)o1 [Example 65, Sodium (2E)-3-[4-(2,6-dimethoxyphenyl)-5-(5-methylfuran-2-yl)-4H-1,2,4-triazol-3-yl]prop-2-enoate]	75
COC(=O)C(Sc1nnc(-c2ccc(C)o2)n1-c1c(OC)cccc1OC)c1cccc2ccccc12 (centres unmarked) [Example 37, Methyl {[4-(2,6-dimethoxyphenyl)-5-(5-methylfuran-2-yl)-4H-1,2,4-triazol-3-yl]sulfanyl}(naphthalen-1-yl)acetate]	825
COc1cccc(OC)c1-n1c(SCCCCC(=O)O)nnc1-c1ccc(C)o1 [Example 49, 5-{[4-(2,6-Dimethoxyphenyl)-5-(5-methylfuran-2-yl)-4H-1,2,4-triazol-3-yl]sulfanyl}pentanoic acid]	393
COc1cccc(OC)c1-n1c(SCC(=O)O)nnc1-c1ccco1 [Example 61, {[4-(2,6-Dimethoxyphenyl)-5-(furan-2-yl)-4H-1,2,4-triazol-3-yl]sulfanyl}acetic acid]	412
COc1cccc(OC)c1-n1c(CS(=O)(=O)c2nnc[nH]2)nnc1-c1ccc(C)o1 [Example 69]	696
COc1cccc(OC)c1-n1c(SCc2n[nH]c(=O)[nH]2)nnc1-c1ccc(C)o1 [Example 100, 5-({[4-(2,6-Dimethoxyphenyl)-5-(5-methylfuran-2-yl)-4H-1,2,4-triazol-3-yl]sulfanyl}methyl)-2,4-dihydro-3H-1,2,4-triazol-3-one]	957
COC(=O)c1ccccc1CSc1nnc(-c2ccc(C)o2)n1-c1c(OC)cccc1OC [Example 77, Methyl 2-({[4-(2,6-dimethoxyphenyl)-5-(5-methylfuran-2-yl)-4H-1,2,4-triazol-3-yl]sulfanyl}methyl)benzoate]	557
COc1cccc(OC)c1-n1c(/C=C/C(C)=O)nnc1-c1ccc(C)o1 [Example 20, (3E)-4-[4-(2,6-Dimethoxyphenyl)-5-(5-methylfuran-2-yl)-4H-1,2,4-triazol-3-yl]but-3-en-2-one]	729
